The test system of this test is camptothecin-resistant CPT-K5 cells. Description: MTT-microtiter plate tetrazolinium cytotoxicity assay (MTA), camptothecin-resistant cells. The note with it: Homo sapiens, CPT-K5, 96 h, read-out: Cytotoxicity IC50 CPT-K5.

A word on the IC50: it is the point on the concentration scale where inhibition reaches its midpoint.

On to `CC[C@@]1(O)C(=O)OCc2c1cc1n(c2=O)Cc2cc3ccccc3nc2-1` [CPT, camptothecin, reference compound], for which the IC50 was above 10 µM.
